Data published in EP1632557B1, “Novel alkaline cellulases” (Novozymes A/S, priority 1994, dated 1995).

T1: EG I' from Fusarium oxysporum (Figure 4) (Fusarium oxysporum, UniProt P46237)
T1 sequence (P46237 19-429): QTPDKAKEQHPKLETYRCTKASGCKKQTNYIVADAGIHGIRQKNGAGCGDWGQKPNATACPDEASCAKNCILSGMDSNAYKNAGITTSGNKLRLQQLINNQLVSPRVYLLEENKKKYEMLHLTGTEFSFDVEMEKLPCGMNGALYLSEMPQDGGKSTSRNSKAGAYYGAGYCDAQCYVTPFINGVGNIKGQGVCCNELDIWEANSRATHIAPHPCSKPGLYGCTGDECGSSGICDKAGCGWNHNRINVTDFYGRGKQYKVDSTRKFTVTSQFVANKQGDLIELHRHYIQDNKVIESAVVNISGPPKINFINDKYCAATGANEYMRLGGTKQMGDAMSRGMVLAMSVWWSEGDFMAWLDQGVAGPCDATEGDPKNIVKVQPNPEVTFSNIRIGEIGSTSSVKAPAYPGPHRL


Tests used:
[1] = target: T1, EG I' from Fusarium oxysporum (Figure 4); assay: Cellulase activity on cellotriose (coupled glucose oxidase/peroxidase/ABTS assay); conditions: pH 8,5 and 40°C; calculated from a Lineweaver-Burk plot
[2] = substrate: OC[C@H]1O[C@@H](O[C@H]2[C@H](O)[C@@H](O)[C@H](O[C@H]3[C@H](O)[C@@H](O)C(O)O[C@@H]3CO)O[C@@H]2CO)[C@H](O)[C@@H](O)[C@@H]1O; assay: purified protein, by the assay type; conditions: other: substrate cellotriose, pH 8,5 and 40°C, calculated from a Lineweaver-Burk plot, pH 8.5

catalytic activity on cellotriose (Kcat) [1] | Molecule | Km [2] [µM]
5,5 pr. sec | OC[C@H]1O[C@@H](O[C@H]2[C@H](O)[C@@H](O)[C@H](O[C@H]3[C@H](O)[C@@H](O)C(O)O[C@@H]3CO)O[C@@H]2CO)[C@H](O)[C@@H](O)[C@@H]1O (some centres unmarked) [cellotriose] | 
 | EG I' from Fusarium oxysporum (Figure 4) (Fusarium oxysporum) (protein) QTPDKAKEQHPKLETYRCTKASGCKKQTNYIVADAGIHGIRQKNGAGCGDWGQKPNATACPDEASCAKNCILSGMDSNAYKNAGITTSGNKLRLQQLINNQLVSPRVYLLEENKKKYEMLHLTGTEFSFDVEMEKLPCGMNGALYLSEMPQDGGKSTSRNSKAGAYYGAGYCDAQCYVTPFINGVGNIKGQGVCCNELDIWEANSRATHIAPHPCSKPGLYGCTGDECGSSGICDKAGCGWNHNRINVTDFYGRGKQYKVDSTRKFTVTSQFVANKQGDLIELHRHYIQDNKVIESAVVNISGPPKINFINDKYCAATGANEYMRLGGTKQMGDAMSRGMVLAMSVWWSEGDFMAWLDQGVAGPCDATEGDPKNIVKVQPNPEVTFSNIRIGEIGSTSSVKAPAYPGPHRL | 500
